Measured values: patent publication US20180092934A1, “COMPOSITION FOR DNA PROTECTION” (priority 2016, published 2018)

Assays:
[1] = system: 8-hydroxy-2-deoxyguanosine (8-OHdG); test: Serum 8-OHdG ELISA, alcohol-induced DNA damage in rats; type: in vivo, Male Wistar albino rats; conditions: single oral dose in 30% alcohol 4 gm/kg, 4 hr data, n = 4
Text: In nuclear and mitochondrial DNA, 8-hydroxy-2′-deoxyguanosine (8-OHdG) is one of the predominant forms of free radical-induced oxidative lesions, and is used as a biomarker for oxidative stress. Rat 8-OHdG ELISA kit from Elabscience is used for the assay. (Valavanidis A et al (2009). 8-hydroxy-2′-deoxyguanosine (8-OHdG): A critical biomarker of oxidative stress and carcinogenesis. J Environ Sci Health C Environ Carcinog Ecotoxicol Rev. 27(2):[…]).
(§1) Saline/Alcohol (4.0 gm/kg/day, p.o.)/Formulation with alcohol (4.0 gm/kg/day, p.o.) were administered (fed orally by orogastric cannula) for one day. Blood samples were collected before administration of the Saline/Alcohol/Formulation with alcohol and designated as ‘0’ hour, then 2 and 4 hours after the dose. For comet assay one part of the blood was collected in heparinised tube and the other part was allowed to clot to get serum for 8-OHdG assay. Single cell gel electrophoresis (SCGE, the Comet assay) was carried out using whole blood (Cheng-Hung Chuang, Miao-Lin Hu. Use of whole blood directly for single-cell gel electrophoresis (comet) assay in vivo and white blood cells for in vitro assay. Mutation Research; 564 (2004) 75-82.). In short, 15 μl of whole blood was mixed with low melting agarose and fixed on a microscope slide. Those are then lysed by buffer enriched with detergent and high salt. Concomitant electrophoresis at alkaline pH results in unwinding of DNA followed by structures close to comets, when observed by fluorescence microscopy. The intensity of the comet tail relative to the head presents the number of DNA breaks. The probable basis for this is that loops containing a break lose their super coiling and become free to extend toward the anode. This is followed by visual analysis with staining of DNA and calculating fluorescence to determine the extent of DNA damage (Collins, A. R. (2004). “The comet assay for DNA damage and repair: principles, applications, and limitations”. Mol. Biotechnol. 26 (3): 249-261). 8-hydroxy-2-deoxyguanosine was estimated (8-OHdG) by ELISA kit using competitive-ELISA as the method. The microtiter plate is pre-coated with 8-OHdG. 8-OHdG in the sample or standard competes with a fixed amount of 8-OHdG on the solid phase supporter for sites on the Biotinylated Detection Ab specific to 8-OHdG. Excess conjugate and unbound sample or standard were washed from the plate, and Avidin conjugated to Horseradish Peroxidase (HRP) is added to each microplate well. After incubation a TMB substrate solution is added to each well. The enzyme-substrate reaction is terminated by the addition of a sulphuric acid solution and the color change was measured by plate reader at a wavelength of 450 nm±2 nm. The concentration of 8-OHdG in the samples was then determined by comparing the OD of the samples to the standard curve (Szymańska-Chabowska A et al, Evaluation of DNA Damage in People Occupationally Exposed to Arsenic and Some Heavy Metals. Polish J. of Environ. Stud. Vol. 18, No. 6 (2009), 1131-1139).
(§2) % Protection=1−[(T−NS)/(AL−NS)]×100
(§3) T=Mean value of drug treated, NS=Mean value of normal control, AL=Mean value of alcohol alone.
(§4) Male Wistar albino rats weighing 150-200 g were procured and randomly divided into groups consisting of four (4) animals in each group. DNA damage was induced by alcohol in rats by oral administration of 30% alcohol (4 gm/kg/p.o.) once (single dose) and this group served as the negative control and treated groups received different formulations.
All drug solutions were prepared in 40% aqueous alcohol, adjusting the pH in the range of 5.0-10.0 for evaluation of alcohol induced DNA damage and protection against it. This solution was further diluted with distilled water to obtain 30% aqueous alcoholic solution and administered orally by gavage to different rats group of step (1a). […]

[2] = system: alcohol induced DNA damage; test: Comet assay (SCGE) on whole blood, alcohol-induced DNA damage in rats; type: in vivo, Male Wistar albino rats; conditions: single oral dose in 30% alcohol 4 gm/kg, 4 hr data, n = 4
Text: The Single Cell Gel Electrophoresis assay (SCGE, also known as comet assay) is a straightforward and sensitive technique for the detection of DNA damage at the level of the individual eukaryotic cell. It is being used as a standard technique for evaluation of DNA damage/repair, biomonitoring and genotoxicity testing. It involves the encapsulation of cells in a low-melting-point agarose suspension, lysis of the cells in neutral or alkaline (pH>13) conditions, and electrophoresis of the suspended lysed cells. The term “comet” refers to the pattern of DNA migration through the electrophoresis gel, which often resembles a comet (Cheng-Hung Chuang, Miao-Lin Hu. Use of whole blood directly for single-cell gel electrophoresis (comet) assay in vivo and white blood cells for in vitro assay. Mutation Research; 564 (2004) 75-82.).
as §1, §2, §3
as §4, with “formulations. […]” for “formulations.”

| SMILES | 8OHdG Protection [1] | COMET Protection [2] |
| --- | --- | --- |
| OC[C@@H](O)[C@@H](O)[C@H](O)[C@H](O)CO [0.5 Man, D-Mannitol] | 7.69% | 5.34% |
| OC[C@@H](O)[C@@H](O)CO [2.5 Ery, D-Erythritol] | 37.28% | 34.71% |
| CC1(C)[C@@H](O[C@H]2O[C@H](C(=O)O)[C@@H](O)[C@H](O)[C@H]2O[C@@H]2O[C@H](C(=O)O)[C@@H](O)[C@H](O)[C@H]2O)CC[C@]2(C)[C@H]3C(=O)C=C4[C@@H]5C[C@@](C)(C(=O)O)CC[C@]5(C)CC[C@@]4(C)[C@]3(C)CC[C@@H]12 [0.04 18β-GA, 18β-Glycyrrhizin] | 0% | 0% |
| OC[C@@H](O)[C@@H](O)CO [0.8 Ery, D-Erythritol] | 15.98% | 8.25% |
| CC1(C)[C@@H](O[C@H]2O[C@H](C(=O)O)[C@@H](O)[C@H](O)[C@H]2O[C@@H]2O[C@H](C(=O)O)[C@@H](O)[C@H](O)[C@H]2O)CC[C@]2(C)[C@H]3C(=O)C=C4[C@@H]5C[C@@](C)(C(=O)O)CC[C@]5(C)CC[C@@]4(C)[C@]3(C)CC[C@@H]12 [0.3 18β-GA, 18β-Glycyrrhizin] | 11.24% | 6.07% |
| CC1(C)[C@@H](O[C@H]2O[C@H](C(=O)O)[C@@H](O)[C@H](O)[C@H]2O[C@@H]2O[C@H](C(=O)O)[C@@H](O)[C@H](O)[C@H]2O)CC[C@]2(C)[C@H]3C(=O)C=C4[C@@H]5C[C@@](C)(C(=O)O)CC[C@]5(C)CC[C@@]4(C)[C@]3(C)CC[C@@H]12 [0.1 18β-GA, 18β-Glycyrrhizin] | 3.55% | 0.97% |
| OC[C@@H](O)[C@@H](O)CO [1.2 Ery, D-Erythritol] | 23.08% | 18.69% |
| CC1(C)[C@@H](O[C@H]2O[C@H](C(=O)O)[C@@H](O)[C@H](O)[C@H]2O[C@@H]2O[C@H](C(=O)O)[C@@H](O)[C@H](O)[C@H]2O)CC[C@]2(C)[C@H]3C(=O)C=C4[C@H]5C[C@@](C)(C(=O)O)CC[C@]5(C)CC[C@@]4(C)[C@]3(C)CC[C@@H]12 [0.3 18α-GA, 18α-Glycyrrhizin] | 10.46% | 5.78% |
| OC[C@@H](O)[C@@H](O)[C@H](O)[C@H](O)CO [1.2 Man, D-Mannitol] | 24.85% | 13.59% |
| OC[C@@H](O)[C@@H](O)[C@H](O)[C@H](O)CO [2.5 Man, D-Mannitol] | 40.24% | 33.98% |
| OC[C@@H](O)[C@@H](O)[C@H](O)[C@H](O)CO [0.8 Man, D-Mannitol] | 14.20% | 9.22% |
| CC1(C)[C@@H](O[C@H]2O[C@H](C(=O)O)[C@@H](O)[C@H](O)[C@H]2O[C@@H]2O[C@H](C(=O)O)[C@@H](O)[C@H](O)[C@H]2O)CC[C@]2(C)[C@H]3C(=O)C=C4[C@H]5C[C@@](C)(C(=O)O)CC[C@]5(C)CC[C@@]4(C)[C@]3(C)CC[C@@H]12 [0.1 18α-GA, 18α-Glycyrrhizin] | 4.20% | 0.59% |
